Measurements from PMC4327562, “Emergence of terpene cyclization in Artemisia annua” (Nature Communications, 2015).

Experiments:
[1] = target: T1, amorpha-4,11-diene synthase (ADS) (Artemisia annua, UniProt Q9AR04); assay: GC-MS product analysis and malachite green assay; assay type: biochemical; conditions: 5 mM MgCl2, pH 7.0; numbering likely that of A. annua BFS
T1 construct: gene AMS1; recombinant

[2] = target: T2, (E)-β-farnesene synthase (BFS), A. annua BFS (Artemisia annua, UniProt Q9FXY7); conditions: 5 mM MgCl2, pH 7.0, 30 °C, inorganic pyrophosphatase coupled
T2 construct: gene CASC125
T2 sequence (Q9FXY7 whole entry): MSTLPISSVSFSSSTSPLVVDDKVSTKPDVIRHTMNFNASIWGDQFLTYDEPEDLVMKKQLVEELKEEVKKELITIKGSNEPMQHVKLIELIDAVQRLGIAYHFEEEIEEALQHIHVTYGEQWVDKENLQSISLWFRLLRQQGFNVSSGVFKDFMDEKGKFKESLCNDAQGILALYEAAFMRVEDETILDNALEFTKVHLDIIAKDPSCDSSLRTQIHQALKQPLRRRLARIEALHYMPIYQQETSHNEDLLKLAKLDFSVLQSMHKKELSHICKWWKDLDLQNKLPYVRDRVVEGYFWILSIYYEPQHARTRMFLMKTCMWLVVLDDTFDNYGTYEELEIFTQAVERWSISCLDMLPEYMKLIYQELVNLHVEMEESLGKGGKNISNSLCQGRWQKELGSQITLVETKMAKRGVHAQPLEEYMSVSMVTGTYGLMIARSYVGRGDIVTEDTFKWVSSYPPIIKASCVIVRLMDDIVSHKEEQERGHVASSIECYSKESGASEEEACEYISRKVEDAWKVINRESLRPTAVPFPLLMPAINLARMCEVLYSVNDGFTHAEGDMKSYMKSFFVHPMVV
From the text: (§1) malachite green assay, steady-state kinetics on (E)-β-farnesene synthase (BFS), A. annua BFS

[3] = target: T3, (E)-β-farnesene synthase (BFS), A. annua BFS (Artemisia annua, UniProt Q9FXY7, Y305L/Y433A, form not given); conditions: 5 mM MgCl2, pH 7.0, 30 °C, inorganic pyrophosphatase coupled
T3 construct: gene CASC125
T3 sequence (Q9FXY7 whole entry Y305L/Y433A, form open): as the sequence (Q9FXY7 whole entry) above, with Y305L, Y433A counted along it
From the text: as §1

[4] = target: T4, (E)-β-farnesene synthase (BFS), A. annua BFS (Artemisia annua, UniProt Q9FXY7, Y423L/V470G, form not given); conditions: 5 mM MgCl2, pH 7.0, 30 °C, inorganic pyrophosphatase coupled
T4 construct: gene CASC125
T4 sequence (Q9FXY7 whole entry Y423L/V470G, form open): as the sequence (Q9FXY7 whole entry) above, with Y423L, V470G counted along it
From the text: as §1

[5] = target: T5, (E)-β-farnesene synthase (BFS), A. annua BFS (Artemisia annua, UniProt Q9FXY7, Y433A/V470G, form not given); conditions: 5 mM MgCl2, pH 7.0, 30 °C, inorganic pyrophosphatase coupled
T5 construct: gene CASC125
T5 sequence (Q9FXY7 whole entry Y433A/V470G, form open): as the sequence (Q9FXY7 whole entry) above, with Y433A, V470G counted along it
From the text: as §1

T1 sequence (Q9AR04 whole entry): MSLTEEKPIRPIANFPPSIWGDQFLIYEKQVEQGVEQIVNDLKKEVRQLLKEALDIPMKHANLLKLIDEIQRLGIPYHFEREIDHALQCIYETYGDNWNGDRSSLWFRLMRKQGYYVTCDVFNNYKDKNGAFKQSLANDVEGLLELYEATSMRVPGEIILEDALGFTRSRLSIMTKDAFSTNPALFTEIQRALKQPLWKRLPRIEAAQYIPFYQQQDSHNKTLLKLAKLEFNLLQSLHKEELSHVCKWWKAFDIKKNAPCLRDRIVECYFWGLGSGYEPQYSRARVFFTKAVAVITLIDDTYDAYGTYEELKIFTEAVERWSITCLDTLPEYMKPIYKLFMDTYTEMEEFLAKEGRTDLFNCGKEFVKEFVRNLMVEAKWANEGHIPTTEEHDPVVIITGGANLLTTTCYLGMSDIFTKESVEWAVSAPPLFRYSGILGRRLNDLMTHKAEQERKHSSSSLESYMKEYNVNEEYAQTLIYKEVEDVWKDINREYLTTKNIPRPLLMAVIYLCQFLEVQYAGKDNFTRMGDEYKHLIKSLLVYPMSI

Row | Structure (SMILES) | GC-MS product analysis and malachite green assay [1] | Km [2] [µM] | Km [3] [µM] | Km [4] [µM] | Km [5] [µM]
1 | CC(C)=CCC/C(C)=C/CC/C(C)=C/COP(=O)(O)OP(=O)(O)O [FPP, farnesyl pyrophosphate] | incorporating the L402Y mutation into ADS induced a broadening of cyclization products | – | – | – | –
2 | CC(C)=CCC/C(C)=C/CC/C(C)=C/CO[P@@](=O)(O)OP(=O)(O)O (stereo in doubt) [FPP, farnesyl pyrophosphate] | – | 10.6 | 5.22 | 5.99 | 4.27
